The values below come from the kinase profiling compilation of Christmann-Franck et al. (2016).

Targets include MYLK3 (human) (UniProt Q32MK0); FGFR4 (human) (UniProt P22455); VRK2 (human) (UniProt Q86Y07); PRKCB2 (human) (UniProt P05771); SGK2 (human) (UniProt Q9HBY8); PRKG2 (human) (UniProt Q13237); STK33 (human) (UniProt Q9BYT3); CSF1R (human) (UniProt P07333); DCLK2 (human) (UniProt Q8N568); DMPK (human) (UniProt Q09013); RPS6KA2 KD1 KD2 (human) (UniProt Q15349); CSNK1G2 (human) (UniProt P78368); LCK (human) (UniProt P06239); CDC42BPB (human) (UniProt Q9Y5S2); RET (human) (UniProt P07949); BRSK1 (human) (UniProt Q8TDC3); PRKD2 (human) (UniProt Q9BZL6); MAP3K9 (human) (UniProt P80192); CSNK1D (human) (UniProt P48730); MET (human) (UniProt P08581); ABL1 (human) (UniProt P00519).

Holding throughout (assay): Caliper, Mobility shift assay off-chip
For assay [1], the system named is FGFR1 (human), P11362 [V561M].
For assay [2], the system named is EGFR (human), P00533 [L861Q].
Assay [3] relates to MAPK14 (human), Q16539 [T106M].
Another assay deals with ROCK2 (rat). Particulars: compound 10.0 µM; accession and sequence are those of the human protein.
For the next assay, the system named is PRKACA (cow). The settings on record: compound 10.0 µM; accession and sequence are those of the human protein.
The test system of the next assay is RPS6KA1 KD1 KD2 (rat). The settings on record: compound 10.0 µM; accession and sequence are those of the human protein.
In the next assay the test system is MAPK1 (mouse). The settings on record: compound 10.0 µM; accession and sequence are those of the human protein.

Usually residual activity stands for the signal under treatment as a percentage of the control signal.

Chain of STK33 (human) (Q9BYT3 whole entry, looked up): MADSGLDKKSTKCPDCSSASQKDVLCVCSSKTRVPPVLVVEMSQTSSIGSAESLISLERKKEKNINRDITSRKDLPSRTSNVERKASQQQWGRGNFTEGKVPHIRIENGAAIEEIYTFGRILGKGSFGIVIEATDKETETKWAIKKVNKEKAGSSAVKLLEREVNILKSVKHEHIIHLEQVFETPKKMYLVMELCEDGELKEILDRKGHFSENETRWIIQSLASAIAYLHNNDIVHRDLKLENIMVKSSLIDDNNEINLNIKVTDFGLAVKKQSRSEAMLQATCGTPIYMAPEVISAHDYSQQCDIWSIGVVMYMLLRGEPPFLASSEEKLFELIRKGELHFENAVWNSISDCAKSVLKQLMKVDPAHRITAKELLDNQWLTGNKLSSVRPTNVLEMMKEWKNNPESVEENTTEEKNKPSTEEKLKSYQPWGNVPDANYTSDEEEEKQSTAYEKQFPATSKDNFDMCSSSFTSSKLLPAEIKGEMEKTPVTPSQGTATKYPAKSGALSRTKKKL
Chain of MAP3K9 (human) (P80192 whole entry, looked up): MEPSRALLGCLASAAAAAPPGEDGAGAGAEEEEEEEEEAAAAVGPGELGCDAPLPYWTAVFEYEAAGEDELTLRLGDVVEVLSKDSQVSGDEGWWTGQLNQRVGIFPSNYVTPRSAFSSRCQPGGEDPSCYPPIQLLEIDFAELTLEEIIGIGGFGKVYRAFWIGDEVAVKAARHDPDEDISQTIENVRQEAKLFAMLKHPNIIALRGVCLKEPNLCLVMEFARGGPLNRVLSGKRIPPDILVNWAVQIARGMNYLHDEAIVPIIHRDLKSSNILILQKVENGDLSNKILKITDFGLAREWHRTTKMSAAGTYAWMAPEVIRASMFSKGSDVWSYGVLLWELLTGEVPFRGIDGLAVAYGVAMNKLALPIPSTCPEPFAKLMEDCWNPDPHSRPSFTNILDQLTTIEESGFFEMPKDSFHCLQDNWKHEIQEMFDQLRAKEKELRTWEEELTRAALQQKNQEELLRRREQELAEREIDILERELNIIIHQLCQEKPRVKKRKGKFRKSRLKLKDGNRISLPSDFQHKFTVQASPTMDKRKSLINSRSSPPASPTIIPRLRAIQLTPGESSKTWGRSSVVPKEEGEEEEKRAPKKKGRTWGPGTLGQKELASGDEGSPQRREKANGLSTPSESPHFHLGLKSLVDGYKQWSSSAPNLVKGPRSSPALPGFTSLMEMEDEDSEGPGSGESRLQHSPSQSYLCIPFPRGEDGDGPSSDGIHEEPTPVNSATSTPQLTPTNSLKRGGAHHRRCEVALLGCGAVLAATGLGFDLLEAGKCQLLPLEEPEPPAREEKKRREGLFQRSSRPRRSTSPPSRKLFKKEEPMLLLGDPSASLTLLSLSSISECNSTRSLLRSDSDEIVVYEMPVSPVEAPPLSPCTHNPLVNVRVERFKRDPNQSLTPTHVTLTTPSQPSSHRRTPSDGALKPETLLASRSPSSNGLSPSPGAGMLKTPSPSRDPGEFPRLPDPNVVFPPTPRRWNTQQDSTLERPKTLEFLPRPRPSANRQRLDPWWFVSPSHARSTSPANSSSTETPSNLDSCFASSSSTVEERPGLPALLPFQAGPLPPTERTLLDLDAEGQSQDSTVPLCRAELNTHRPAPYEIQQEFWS
Chain of DCLK2 (human) (Q8N568 whole entry, looked up): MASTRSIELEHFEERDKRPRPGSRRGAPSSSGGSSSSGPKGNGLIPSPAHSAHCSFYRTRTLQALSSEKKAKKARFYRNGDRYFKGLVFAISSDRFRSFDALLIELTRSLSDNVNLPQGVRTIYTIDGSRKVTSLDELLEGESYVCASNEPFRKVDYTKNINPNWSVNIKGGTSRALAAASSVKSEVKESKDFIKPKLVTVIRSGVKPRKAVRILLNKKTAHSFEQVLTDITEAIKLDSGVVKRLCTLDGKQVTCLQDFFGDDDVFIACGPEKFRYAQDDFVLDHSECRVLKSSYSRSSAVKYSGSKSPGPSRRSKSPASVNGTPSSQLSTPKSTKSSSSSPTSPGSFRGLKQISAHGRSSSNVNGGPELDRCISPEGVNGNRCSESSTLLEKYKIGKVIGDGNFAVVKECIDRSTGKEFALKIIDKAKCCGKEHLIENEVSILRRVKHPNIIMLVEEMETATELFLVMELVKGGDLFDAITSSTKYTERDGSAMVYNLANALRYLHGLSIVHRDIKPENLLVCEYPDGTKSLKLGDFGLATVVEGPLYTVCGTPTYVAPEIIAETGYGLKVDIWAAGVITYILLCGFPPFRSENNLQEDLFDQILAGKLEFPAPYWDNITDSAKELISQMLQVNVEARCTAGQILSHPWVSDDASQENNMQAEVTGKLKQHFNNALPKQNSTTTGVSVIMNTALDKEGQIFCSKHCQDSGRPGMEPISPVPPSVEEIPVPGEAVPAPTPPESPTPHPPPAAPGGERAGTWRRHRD
Chain of SGK2 (human) (Q9HBY8 whole entry, looked up): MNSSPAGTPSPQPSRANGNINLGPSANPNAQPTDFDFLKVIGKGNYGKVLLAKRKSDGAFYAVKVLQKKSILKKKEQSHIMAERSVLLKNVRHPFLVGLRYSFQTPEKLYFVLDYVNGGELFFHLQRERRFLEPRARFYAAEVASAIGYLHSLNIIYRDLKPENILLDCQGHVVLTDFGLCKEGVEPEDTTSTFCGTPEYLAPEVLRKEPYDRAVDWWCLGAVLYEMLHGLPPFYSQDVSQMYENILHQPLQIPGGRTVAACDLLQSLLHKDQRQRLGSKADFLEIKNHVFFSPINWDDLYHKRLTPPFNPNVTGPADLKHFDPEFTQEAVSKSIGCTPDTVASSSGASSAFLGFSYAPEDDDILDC
Chain of CSNK1D (human) (P48730 whole entry, looked up): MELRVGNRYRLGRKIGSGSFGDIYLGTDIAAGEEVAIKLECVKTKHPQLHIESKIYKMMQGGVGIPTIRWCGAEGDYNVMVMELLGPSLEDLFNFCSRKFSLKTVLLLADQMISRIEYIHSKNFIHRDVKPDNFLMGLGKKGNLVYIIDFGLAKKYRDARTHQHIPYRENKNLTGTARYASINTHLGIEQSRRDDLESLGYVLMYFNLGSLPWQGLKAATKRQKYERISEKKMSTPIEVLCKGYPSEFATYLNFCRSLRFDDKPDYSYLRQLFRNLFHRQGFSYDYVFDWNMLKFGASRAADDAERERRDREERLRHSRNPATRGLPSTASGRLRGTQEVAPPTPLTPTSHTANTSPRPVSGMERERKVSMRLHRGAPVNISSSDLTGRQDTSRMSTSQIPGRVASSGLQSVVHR
Chain of MYLK3 (human) (Q32MK0 whole entry, looked up): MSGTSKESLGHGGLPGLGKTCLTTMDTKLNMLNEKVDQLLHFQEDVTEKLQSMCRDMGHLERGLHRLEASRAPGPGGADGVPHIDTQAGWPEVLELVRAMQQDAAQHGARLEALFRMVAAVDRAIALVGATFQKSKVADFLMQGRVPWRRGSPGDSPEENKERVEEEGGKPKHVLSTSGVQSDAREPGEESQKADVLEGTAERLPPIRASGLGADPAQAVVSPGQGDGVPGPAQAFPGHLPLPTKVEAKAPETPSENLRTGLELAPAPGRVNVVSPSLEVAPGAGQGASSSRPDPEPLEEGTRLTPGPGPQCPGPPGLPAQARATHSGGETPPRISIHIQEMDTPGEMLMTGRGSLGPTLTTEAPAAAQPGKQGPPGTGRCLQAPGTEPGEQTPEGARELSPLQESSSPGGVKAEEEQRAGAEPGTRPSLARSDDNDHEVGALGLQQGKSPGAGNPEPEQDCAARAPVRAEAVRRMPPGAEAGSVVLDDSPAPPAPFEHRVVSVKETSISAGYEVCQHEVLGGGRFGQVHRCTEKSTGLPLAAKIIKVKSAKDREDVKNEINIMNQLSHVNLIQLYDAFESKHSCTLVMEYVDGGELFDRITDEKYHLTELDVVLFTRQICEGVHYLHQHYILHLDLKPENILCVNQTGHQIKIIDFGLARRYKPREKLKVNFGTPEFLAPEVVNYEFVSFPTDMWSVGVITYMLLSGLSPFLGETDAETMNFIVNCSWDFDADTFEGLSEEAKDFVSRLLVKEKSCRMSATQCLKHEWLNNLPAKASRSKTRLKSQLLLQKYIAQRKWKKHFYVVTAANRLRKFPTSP
Chain of BRSK1 (human) (Q8TDC3 whole entry, looked up): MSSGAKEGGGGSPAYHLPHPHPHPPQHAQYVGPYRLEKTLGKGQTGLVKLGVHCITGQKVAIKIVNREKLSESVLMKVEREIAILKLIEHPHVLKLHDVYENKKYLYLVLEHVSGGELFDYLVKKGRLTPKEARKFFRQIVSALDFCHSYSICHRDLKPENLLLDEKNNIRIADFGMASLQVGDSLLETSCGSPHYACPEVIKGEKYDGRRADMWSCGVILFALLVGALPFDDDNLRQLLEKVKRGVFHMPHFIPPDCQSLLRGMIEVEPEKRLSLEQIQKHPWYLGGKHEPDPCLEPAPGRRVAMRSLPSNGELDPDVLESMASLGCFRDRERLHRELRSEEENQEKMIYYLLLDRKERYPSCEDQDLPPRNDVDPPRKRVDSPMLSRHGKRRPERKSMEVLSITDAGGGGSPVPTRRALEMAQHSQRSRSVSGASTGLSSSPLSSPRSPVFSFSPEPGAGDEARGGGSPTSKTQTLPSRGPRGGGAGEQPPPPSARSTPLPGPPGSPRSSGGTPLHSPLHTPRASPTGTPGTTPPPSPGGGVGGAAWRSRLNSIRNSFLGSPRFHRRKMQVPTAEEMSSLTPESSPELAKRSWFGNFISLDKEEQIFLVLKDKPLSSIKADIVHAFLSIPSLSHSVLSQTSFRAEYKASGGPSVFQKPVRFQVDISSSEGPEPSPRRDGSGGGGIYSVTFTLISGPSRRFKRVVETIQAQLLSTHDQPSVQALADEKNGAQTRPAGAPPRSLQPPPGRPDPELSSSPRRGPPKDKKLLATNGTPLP

With `O=C(NCCCNc1nc(Nc2cccc(NC(=O)N3CCCC3)c2)ncc1I)c1cccs1`, the residual activity is 107% at MYLK3 (human) (compound 1.0 µM); 9% in assay [1] (compound 1.0 µM); 113% on FGFR4 (human) (compound 1.0 µM); 117% on VRK2 (human) (compound 1.0 µM); 106% at PRKCB2 (human) (compound 1.0 µM); 94% at SGK2 (human) (compound 1.0 µM). Moreover, the residual activity at PRKG2 (human) (compound 1.0 µM) was 100%; at STK33 (human) (compound 1.0 µM) it was 82%; at CSF1R (human) (compound 1.0 µM) it was 86%; in [2] (compound 1.0 µM) it was 117%; at DCLK2 (human) (compound 1.0 µM), 116%; on DMPK (human) (compound 1.0 µM), 94%. Further, the residual activity at RPS6KA2 KD1 KD2 (human) (compound 1.0 µM) amounted to 120%; on CSNK1G2 (human) (compound 1.0 µM), 89%; at LCK (human) (compound 1.0 µM) it was 76%; on CDC42BPB (human) (compound 1.0 µM), 113%; on RET (human) (compound 1.0 µM), 30%; at BRSK1 (human) (compound 1.0 µM), 76%. Also, the residual activity was 75% on PRKD2 (human) (compound 1.0 µM); 95% in assay [3] (compound 1.0 µM); 23% on MAP3K9 (human) (compound 1.0 µM); 94% on CSNK1D (human) (compound 1.0 µM); 137% at MET (human) (compound 1.0 µM); 82% on ABL1 (human) (compound 1.0 µM).

`CC(C)(C)c1nc2c3ccc(F)cc3c3c(=O)[nH]ccc3c2[nH]1`: the residual activity in the assay with ROCK2 (rat) was found to be 21%; in the assay on PRKACA (cow) it was 45%; in the assay on RPS6KA1 KD1 KD2 (rat), 10%; in the assay with MAPK1 (mouse), 11%.

Turning to `COc1ccc(C#Cc2ccc3ncc4ncn(-c5ccc(CCN)cc5)c4c3c2)cc1`, the residual activity on MYLK3 (human) (compound 10.0 µM) amounted to 29%; in assay [1] (compound 10.0 µM), 6%; at FGFR4 (human) (compound 10.0 µM), 44%; on VRK2 (human) (compound 10.0 µM), 115%; on PRKCB2 (human) (compound 10.0 µM), 118%; on SGK2 (human) (compound 10.0 µM), 26%. The residual activity on PRKG2 (human) (compound 10.0 µM) stood at 34%; at STK33 (human) (compound 10.0 µM), 58%; at CSF1R (human) (compound 10.0 µM), 17%; in assay [2] (compound 10.0 µM), 72%; on DCLK2 (human) (compound 10.0 µM), 105%; on DMPK (human) (compound 10.0 µM), 97%. Besides, the residual activity came out at 8% on RPS6KA2 KD1 KD2 (human) (compound 10.0 µM); 39% on CSNK1G2 (human) (compound 10.0 µM); 65% on LCK (human) (compound 10.0 µM); 111% at CDC42BPB (human) (compound 10.0 µM); 9% at RET (human) (compound 10.0 µM); 36% on BRSK1 (human) (compound 10.0 µM). The residual activity is 15% at PRKD2 (human) (compound 10.0 µM); 79% in [3] (compound 10.0 µM); 8% on MAP3K9 (human) (compound 10.0 µM); 35% on CSNK1D (human) (compound 10.0 µM); 17% on MET (human) (compound 10.0 µM); 73% on ABL1 (human) (compound 10.0 µM).
